Common to all, as to format: cell-based
The subject of experiment [1] is Staphylococcus aureus NRS384 (MRSA). Kind of experiment: Broth microdilution MIC, S. aureus NRS384 (MRSA). The note with it: Staphylococcus aureus; broth microdilution, 37° C., 20 hours; read-out: MIC NRS 384 (MRSA). The procedure, abridged:
(§1)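 Broth microdilution in strain-specific test medium with ~5.0×10^5 cfu/ml inoculum, 1% DMSO and two-fold compound dilutions from 64 to 0.0625 μg/ml. Plates were held 20 hours at 37° C in ambient air. S. pneumoniae colonies were grown beforehand on blood agar in 5% CO2.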

Experiment [2] has as its system Staphylococcus aureus ATCC 29213 (MSSA). Put plainly: Broth microdilution MIC, S. aureus ATCC 29213 (MSSA). The settings on record: broth microdilution, 37° C., 20 hours, read-out: MIC S. aureus ATCC 29213 (MSSA). The essentials: as §1
For orientation: Broth dilution looks for growth in wells or tubes with falling amounts of substance.

Experiment [3] relates to Enterococcus faecalis ATCC 29212. Put plainly: Broth microdilution MIC, E. faecalis ATCC 29212. The note with it: ATCC29212, broth microdilution, 37° C., 20 hours, read-out: MIC E. faecalis ATCC 29212. The procedure, abridged: as §1
Experiment [4] concerns Enterococcus faecium ATCC 700221 (VRE). Put plainly: Broth microdilution MIC, E. faecium ATCC 700221 (VRE). The note with it: Enterococcus faecium; broth microdilution, 37° C., 20 hours; read-out: MIC E. faecium ATCC 700221 (VRE). The essentials: as §1
Experiment [5] relates to Streptococcus pneumoniae ATCC 49619. Kind of experiment: Broth microdilution MIC, S. pneumoniae ATCC 49619. The note with it: ATCC49619, broth microdilution, 37° C., 20 hours, read-out: MIC S. pneumoniae ATCC 49619. The essentials:
as §1

Experiment [6] has as its system Bacillus subtilis ATCC 6633. Kind of experiment: Broth microdilution MIC, B. subtilis ATCC 6633. The note with it: ATCC6633, broth microdilution, 37° C., 20 hours, read-out: MIC B. subtilis ATCC 6633. The essentials:
as §1

In experiment [7] the test system is Escherichia coli ATCC 25922. Put plainly: Broth microdilution MIC, E. coli ATCC 25922 (MHIIB w & w/o 4 mM EDTA). The settings on record: broth microdilution, 37° C., 20 hours. The essentials: as §1

Each structure is given as a SMILES string. Converted amounts (≈) assume the structure as drawn.

Broadly, the MIC is the least concentration at which growth counts as inhibited. Turning to `O=C([C@@H](O)[C@H](O)CO)N1CCC(n2ncc3nc(NCc4ccc(Cl)c(Cl)c4)[nH]c(=O)c32)CC1` [Compound 276, 5-((3,4-dichlorobenzyl)amino)-1-(1-((2S,3R)-2,3,4-trihydroxybutanoyl)piperidin-4-yl)-1H-pyrazolo[4,3-d]pyrimidin-7(6H)-one], the MIC in experiment [1] was 64 µg/mL (≈ 125 µM); in experiment [2] it was > 64 µg/mL; in experiment [3], 64 µg/mL (≈ 125 µM); in experiment [4], 32 µg/mL (≈ 62.6 µM); in experiment [5], 8 µg/mL (≈ 15.6 µM); in experiment [6], 16 µg/mL (≈ 31.3 µM). Moreover, in experiment [7] (Escherichia coli, ATCC25922, without EDTA, read-out: MIC E. coli ATCC 25922), the MIC is > 64 µg/mL. In addition, in experiment [7] (with 4 mM EDTA), the “MIC E. coli ATCC 25922 + 4 mM EDTA” value was >64 µg/mL.

The values above are taken from patent publication US10723741B1, “DNA polymerase IIIC inhibitors and use thereof” (Acurx Pharmaceuticals, LLC, priority 2018, dated 2020).
